# In ChEMBL document CHEMBL1154198, “Chemical genetics of Plasmodium falciparum” (Nature, 2010):
# Legend:
# Plasmodium falciparum [1] = assay: ST_JUDE: Plasmodium falciparum 3D7 EC50 (uM) as measured by SYBR green dye; format: functional, organism-based
# Plasmodium falciparum [2] = assay: ST_JUDE: Plasmodium falciparum K1 EC50 (uM) as measured by SYBR green dye; format: functional, organism-based
SMILES,EC50 (Plasmodium falciparum [1]) [µM],EC50 (Plasmodium falciparum [2]) [µM]
CCOC(=O)C(=O)Oc1cc2oc(C(=O)OCC)c(-c3nc4ccccc4s3)c(=O)c2cc1CC,> 15,> 15
O=C(Nc1cccc(F)c1)c1cc2ccccc2oc1=O,> 15,> 15
Cc1cccnc1Nc1nc(-c2ccccn2)cs1,1.84,1.32
CC(=O)c1ccc(NC(=O)C2c3ccccc3C(=O)N(CC(C)C)C2c2cccs2)cc1 (stereo not drawn),0.571,0.682
CCC(=O)NC(c1ccco1)c1cc(Cl)c2cccnc2c1O (stereo not drawn),> 15,2.69
CC(C)C(=O)N1CCOc2c(cc(-c3csc4ccccc34)cc2OCCc2ccccn2)C1,> 15,4.48
CC(C)(C)c1ccc(-c2cc(-c3cc(Cl)ccc3O)[nH]n2)cc1,4.23,1.34
CCCC(=O)NC(Nc1ccc(S(=O)(=O)Nc2cc(C)on2)cc1)(C(=O)OCC)C(F)(F)F (stereo not drawn),1.85,5.22
O=C(NCCN1CCOCC1)C(=O)Nc1ccc(F)cc1F,> 15,> 15
CCc1ccc(CNCC(O)c2ccccc2)cc1 (stereo not drawn),2.17,1.37
CCOc1cc(/C=C(\C#N)c2nn(CCO)c(N)c2C#N)cc(I)c1OC,> 15,> 15
CCOC(=O)c1sc(N2C(=O)C(O)=C(C(=O)c3ccc(Cl)cc3)C2c2ccccc2)nc1C (stereo not drawn),> 15,> 15
CCOC(=O)c1c(NC(=O)c2ccc(Cl)cc2Cl)sc(C)c1C,> 15,> 15
CC(C)/N=C1\C(=O)c2ccccc2C(O)=C1Cl,1.23,0.53
CCC(C(=O)NCc1ccccc1Cl)n1c2ccccc2c2nc(=O)cc(C)n21 (stereo not drawn),> 15,> 15
O=C(NCc1ccccc1)C1CCC(Cn2c(=O)c3ccccc3n(Cc3cccc(F)c3)c2=O)CC1 (stereo not drawn),> 15,> 15
COc1ccc(C2C(C#N)=C(C(C)(C)C)Nc3ncnn32)cc1 (stereo not drawn),8.08,> 15
COc1ccc(C(=O)NC(Nc2ccc(Cl)cc2)C(Cl)(Cl)Cl)cc1OC (stereo not drawn),1.53,1.86
CC(C)(C)CNc1cc(N2CCN(C(=O)c3cccs3)CC2)ccc1[N+](=O)[O-],4.53,4.76
O=C(Nc1ccc2oc(-c3ccccc3)nc2c1)C(Cl)(Cl)Cl,> 15,4.52
Cc1ccc(NC(=O)Cn2c(C)c(C=O)c3ccccc32)cc1Cl,> 15,4.63
CCOC(=O)c1c(NC(=O)C(c2ccccc2)c2ccccc2)sc(C(=O)N(CC)CC)c1C,> 15,> 15

SMILES,EC50 (Plasmodium falciparum [1]) [µM],EC50 (Plasmodium falciparum [2]) [µM]
Oc1c(C(Nc2ccccn2)c2ccc(Cl)cc2)ccc2cccnc12 (stereo not drawn),2.72,4.11
COC(=O)CNC(c1ccccc1)c1cc(Br)ccc1NC(=O)c1ccccc1 (stereo not drawn),6.83,6.06
O=[N+]([O-])c1ccc2ncnc(Nc3cc(Cl)ccc3O)c2c1,1.62,1.75
CCOc1cc(Br)c(C2NC(=O)NC(c3ccccc3)=C2C(C)=O)cc1OCC (stereo not drawn),1.51,> 15
Cc1ccn2c(Nc3ccccc3)c(-c3ccccn3)nc2c1,> 15,> 15
CNC(=O)C(=O)N1CCC2(CC1)OCCN2S(=O)(=O)c1ccc(C)cc1,> 15,> 15
CCCSc1nnc(Cn2c(=O)sc3ccccc32)n1C,> 15,> 15
COc1ccccc1N1CCN(Cc2cc(COC(C)C)c3cccnc3c2O)CC1,5.28,> 15
COc1ccc(Cn2c(SCc3ccccc3F)nc3nccnc3c2=O)cc1,0.344,11.7
CCOC(=O)c1oc2ccccc2c1NC(=O)c1ccc(C)c([N+](=O)[O-])c1,> 15,> 15
COC(=O)C1=CNC=C(C(=O)OC)C1c1ccc(F)c(F)c1,8.04,> 15
COC(=O)c1c(S(=O)(=O)N2CCCC2)sc2c1CCN(CCC(C)c1ccccc1)C2 (stereo not drawn),4.39,4.78
CCc1c(C)nc(-n2nc(C)cc2NC(=O)c2cccc(Br)c2)nc1O,> 15,> 15
COc1ccc(OC)c(N2C(=O)c3cccc4c([N+](=O)[O-])ccc(c34)C2=O)c1,> 15,> 15
Cc1ccc2c(c1)-c1c(cnn1CC(=O)Nc1cccc(C#N)c1)CO2,> 15,5.38
CCN(CC)CCCC(C)Nc1nc(C)nc2cc(Cl)ccc12 (stereo not drawn),6.6,> 15
O=C(Nc1ccc(F)cc1)C1c2ccccc2C(=O)N(C2CCCC2)C1c1cccs1 (stereo not drawn),0.808,0.975
COc1ccc(N(CC(=O)Nc2cccc(C(F)(F)F)c2)S(C)(=O)=O)cc1,> 15,> 15
CS(=O)(=O)N(Cc1ccccc1)c1ccccc1C(=O)Nc1cc(Cl)ccc1Cl,6.12,4.58
Cn1c(-c2ccccc2)[n+](C)c2ccccc21,11.7,8.29
COc1ccc(CN2CCN(Cc3ccccc3)CC2)c(O)c1,1.09,0.754
COc1ccccc1C(=O)N(Cc1cccnc1)c1nc2c(F)cccc2s1,> 15,9.07

SMILES,EC50 (Plasmodium falciparum [1]) [µM],EC50 (Plasmodium falciparum [2]) [µM]
CCN(CC)CCNc1nc(Nc2cccc(OC)c2)c2cnn(-c3ccccc3)c2n1,0.458,2.96
CC(=O)Oc1ccc(Cl)cc1/C=C/c1cc(OC(C)=O)c2ccccc2n1,> 15,1.5
OC(CNCc1ccccc1)Cn1c2ccccc2c2ccccc21 (stereo not drawn),3.76,0.81
CO/C(O)=C1\C(C)=NC2=C(C(=O)CC(c3ccc(OC)c(OC)c3)C2)C1c1cccc(Cl)c1 (stereo not drawn),4.1,3.46
CCc1c(C)nc(-n2nc(C)cc2NC(=O)c2ccc(C)c(C)c2)nc1O,> 15,> 15
Cc1ccc2nc(-c3ccc(C)c(NC(=O)C(Cl)(Cl)Cl)c3)oc2c1,> 15,4.17
COc1ccc(OCC(O)Cn2c(C)[n+](C)c3ccccc32)cc1 (stereo not drawn),> 15,> 15
CC(C)c1ccc(/C=C2\Oc3c(ccc(O)c3CN(C)C)C2=O)cc1,1.01,0.615
CCOC(=O)c1ccc(NC(=O)C2CCC(C(C)(C)C)CC2)cc1 (stereo not drawn),> 15,> 15
CCSc1ccc2ccccc2[n+]1CC,0.416,0.259
COc1cccc2sc(N(Cc3cccnc3)C(=O)C3CCCCC3)nc12,> 15,> 15
CSCCCN1C(=O)CSC1c1cnccc1-c1ccc(Br)cc1 (stereo not drawn),1.21,1.17
CCN(CC)CCCNc1nc(-c2ccc(Cl)cc2)nc2ccccc12,> 15,> 15
Cc1cc(Cn2ccnc2)c(C)c([N+](=O)[O-])c1Cn1ccnc1,> 15,> 15
CC(=O)c1c(C)n(CCOc2ccc(F)cc2)c2ccccc12,> 15,4.88
CCc1ccc(N(CC)C(=O)c2cc3cc4ccc(OC)cc4nc3o2)cc1,> 15,> 15
Cc1c(C=O)c2ccccc2n1CC(=O)Nc1ccc(Br)c(Cl)c1,0.702,0.891
Cc1cc(Nc2ccc(F)c(Cl)c2)n2nc(C)nc2n1,3.2,9.17
CC(=O)N1N=C2C3CCN(CC3)C2C1c1ccc(Br)cc1 (stereo not drawn),> 15,> 15
CC[n+]1ccccc1/C=C1\Sc2ccc(C)cc2N1C,0.572,0.453
